Reference: US20120189670A1, “PHARMACEUTICAL COMPOSITIONS AND FORMULATIONS INCLUDING INHIBITORS OF THE PLECKSTRIN HOMOLOGY DOMAIN AND METHODS FOR USING SAME” (priority 2009, published 2012)

Legend:
[1] = biological target: AKT (phospho-Ser^473-AKT) in BxPC-3 (Homo sapiens, UniProt P31749); assay: Western blot phospho-Ser473-AKT in BxPC-3 cells; conditions: for inhibition at 10 µM: BXPC-3, read-out: % pAKT Inhibition At 10 μM
[2] = test system: BxPC-3 pancreatic cell lines; assay: MTT cell survival, BxPC-3; format: cell-based; conditions: Homo sapiens; BxPC-3, MTT
[3] = biological target: AKT (phospho-Ser^473-AKT) in MiaPaCa-2 cells (Homo sapiens, UniProt P31749); assay: Western blot phospho-Ser473-AKT in MiaPaCa-2 cells; conditions: for pAKT inhibition (IC50): MiaPaCa-2 cells
Sequence of AKT (phospho-Ser^473-AKT) in MiaPaCa-2 cells (P31749 whole entry): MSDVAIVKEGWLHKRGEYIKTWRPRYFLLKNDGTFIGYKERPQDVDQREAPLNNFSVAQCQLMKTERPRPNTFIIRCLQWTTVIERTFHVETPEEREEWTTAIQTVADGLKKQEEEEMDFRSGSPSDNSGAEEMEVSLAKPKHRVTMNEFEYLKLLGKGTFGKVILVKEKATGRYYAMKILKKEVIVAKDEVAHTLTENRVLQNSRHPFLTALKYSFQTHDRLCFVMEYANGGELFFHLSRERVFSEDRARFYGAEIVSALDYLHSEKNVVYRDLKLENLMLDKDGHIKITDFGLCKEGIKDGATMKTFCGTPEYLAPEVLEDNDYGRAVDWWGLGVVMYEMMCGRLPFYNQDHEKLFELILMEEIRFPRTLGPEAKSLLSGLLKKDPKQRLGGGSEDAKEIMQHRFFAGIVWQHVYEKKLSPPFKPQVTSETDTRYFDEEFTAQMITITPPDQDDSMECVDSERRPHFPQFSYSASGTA

pancreatic cancer cells = assay: Cell viability assay (Table 3); conditions: for Cell viability (IC50): viability assay, cell line not given; for IC50: Homo sapiens, Pancreatic cancer cell, read-out: Cell viability (IC50)

Sequence of AKT (phospho-Ser^473-AKT) in BxPC-3 (P31749 whole entry): as above

SMILES	inhibition at 10 µM [1]	pAKT inhibition (IC50) [3]	Cell viability (IC50) (pancreatic cancer cells)	other results
CC(=O)Nc1ccc(S(=O)(=O)Nc2nnc(C)s2)cc1 [Compound 106, N-(4-(N-(5-Methyl-1,3,4-thiadizol-2-yl)sulfamoyl)phenyl)acetamide]	< 10%			
CCc1nnc(NS(=O)(=O)c2ccc(N)cc2)s1 [Compound 109, 4-Amino-N-(5-ethyl-1,3,4-thiadiazol-2-yl)benzenesulfonamide]	16%			
CCc1nnc(NS(=O)(=O)c2ccc(NC(C)=O)cc2)s1 [Compound 110, N-(4-(N-(5-Ethyl-1,3,4-thiadizol-2-yl)sulfamoyl)phenyl)acetamide]	45%			
CCCCCCCCCCCCc1ccc(S(=O)(=O)Nc2nnc(CC)s2)cc1 [Compound 112, 4-Dodecyl-N-(5-ethyl-1,3,4-thiadiazol-2-yl)benzenesulfonamide]				IC50 [2]: 32 µM
CC(C)(C)c1nnc(NS(=O)(=O)c2ccc(N)cc2)s1 [Compound 113, 4-Amino-N-(5-tert-butyl-1,3,4-thiadiazol-2-yl)benzenesulfonamide]	13%			
CC(=O)Nc1ccc(S(=O)(=O)Nc2nnc(CC(=O)O)s2)cc1 [Compound 118, 2-(5-(4-Acetamidophenylsulfonamido)-1,3,4-thiadiazol-2-yl)acetic Acid]	19%			
CCOC(=O)Cc1nnc(NS(=O)(=O)c2ccc(NC(C)=O)cc2)s1 [Compound 118E, Ethyl 2-(5-(4-Acetamidophenylsulfonamido)-1,3,4-thiadiazol-2-yl)acetate]	55%			
CCCCCCCCCCCCc1ccc(S(=O)(=O)Nc2nnc(CC(=O)O)s2)cc1 [Compound 120, 2-(5-(4-Dodecylphenylsulfonamido)-1,3,4-thiadiazol-2-yl)acetic Acid]				IC50 [2]: > 100 µM
CCCCCCCCCCCCc1ccc(S(=O)(=O)Nc2nnc(CC(=O)OCC)s2)cc1 [Compound 120E, Ethyl 2-(5-(4-Dodecylphenylsulfonamido)-1,3,4-thiadiazol-2-yl)acetate]				IC50 [2]: 70 µM
Nc1ccc(S(=O)(=O)Nc2nnc(CO)s2)cc1 [Compound 125, 4-Amino-N-(5-(hydroxymethyl)-1,3,4-thiadiazol-2-yl)benzenesulfonamide]	10%			
CCCCCCCCCCCCc1ccc(S(=O)(=O)Nc2nnc(CCCCCN(C)c3ccc([N+](=O)[O-])c4nonc34)s2)cc1 [Compound 137, 4-Dodecyl-N-(5-(5-(methyl(7-nitrobenzo[c][1,2,5]oxadiazol-4-yl)amino)pentyl)-1,3,4-thiadiazol-2-yl)benzenesulfonamide]				AKT phosphorylation inhibition (qualitative) ([1]; BxPC-3 cells): inhibited AKT phosphorylation in a fashion similar to 104
CC(=O)Nc1ccc(S(=O)(=O)Nc2nnc(S(N)(=O)=O)s2)cc1 [Compound 138, N-(4-(N-(5-Sulfamoyl-1,3,4-thiadiazol-2-yl)sulfamoyl)phenyl)acetamide]	< 10%			
O=C(Nc1ccccc1SCCS(=O)(=O)c1ccc(Cl)cc1)c1ccccc1Cl [Compound 436]		N/I	N/I	
O=C(Nc1ccccc1)c1ccccc1NC(=O)c1ccccc1C(=O)O [Compound 439]			N/I	
CCOc1ccccc1C(=O)Nc1ccccc1C(=O)O [Compound 441]			N/I	IC50 [3]: 25 µM
Cc1cc(C)nc(NS(=O)(=O)c2ccc(NC(=O)c3ccoc3C)cc2)n1 [Compound 446]		N/I	N/I	
Cc1cc(C)nc(NS(=O)(=O)c2ccc(NC(=O)c3ccoc3C)cc2)n1 [Compound 447]		N/I	N/I	
Cc1noc(C)c1S(=O)(=O)Nc1ccc(Oc2c(Cl)cccc2Cl)nc1 [Compound 448]		N/I		IC50 (pancreatic cancer cells): 80 µM
COc1cccc(OC)c1C(=O)Nc1ccc(S(=O)(=O)Nc2ccccn2)cc1 [Compound 449]		N/I		IC50 (pancreatic cancer cells): 190 µM
CC(=O)Nc1ccc(NS(=O)(=O)c2c(C)noc2C)cc1 [Compound 451]		N/I	N/I	
COc1cc(NS(=O)(=O)c2ccc(Nc3ccco3)cc2)nc(OC)n1 [Compound 454]		N/I		
Cc1nnc(NS(=O)(=O)c2ccc(NS(=O)(=O)c3ccc4ccccc4c3)cc2)s1 [Compound 455]			did not exhibit cytotoxicity and N/I	
Nc1ccc(S(=O)(=O)Nc2ccc(S(=O)(=O)Nc3nnc(S(N)(=O)=O)s3)cc2)cc1 [Compound 456]			N/I	

Continued, in another order:

inhibition at 10 µM [1]	pAKT inhibition (IC50) [3]	Cell viability (IC50) (pancreatic cancer cells)	SMILES	other results
11%			Cc1nnc(NS(=O)(=O)c2ccc(N)cc2)s1 [Compound 105, 4-Amino-N-(5-methyl-1,3,4-thiadiazol-2-yl)benzenesulfonamide]	
20%			CC(=O)Nc1ccc(S(=O)(=O)Nc2nnc(C(C)(C)C)s2)cc1 [Compound 114, N-(4-(N-(5-tert-Butyl-1,3,4-thiadiazol-2-yl)sulfamoyl)phenyl)acetamide]	
23%			Nc1ccc(S(=O)(=O)Nc2nnc(CC(=O)O)s2)cc1 [Compound 117, 2-(5-(4-Aminophenylsulfonamido)-1,3,4-thiadiazol-2-yl)acetic Acid]	
< 10%			CCOC(=O)c1nnc(NS(=O)(=O)c2ccc(NC(C)=O)cc2)s1 [Compound 122E, Ethyl 5-(4-Acetamidophenylsulfonamido)-1,3,4-thiadiazole-2-carboxylate]	
< 10%			CC(=O)Nc1ccc(S(=O)(=O)Nc2nnc(CO)s2)cc1 [Compound 126, N-(4-(N-(5-(hydroxymethyl)-1,3,4-thiadiazol-2-yl)sulfamoyl)phenyl)acetamide]	
18%			Nc1ccc(S(=O)(=O)Nc2nnc(S(N)(=O)=O)s2)cc1 [Compound 131, 5-(4-Aminophenylsulfonamido)-1,3,4-thiadiazole-2-sulfonamide]	
10%			CCCCCCCCc1ccc(S(=O)(=O)Nc2nncs2)cc1 [Compound 153, 4-Octyl-N-(1,3,4-thiadiazol-2-yl)benzenesulfonamide]	
< 10%			CCCCCCc1ccc(S(=O)(=O)Nc2nncs2)cc1 [Compound 154, 4-Hexyl-N-(1,3,4-thiadiazol-2-yl)benzenesulfonamide]	
< 10%			CCCCc1ccc(S(=O)(=O)Nc2nncs2)cc1 [Compound 155, 4-Butyl-N-(1,3,4-thiadiazol-2-yl)benzenesulfonamide]	
	N/I	N/I	O=S(=O)(Nc1nccs1)c1ccc2ccccc2c1 [Compound 437]	
	N/I	N/I	O=C(O)c1ccccc1C(=O)Nc1ccccc1N1CCOCC1 [Compound 438]	
	N/I	N/I	COc1ccc(NC(=O)c2ccccc2NC(=O)c2ccccc2C(=O)O)c(OC)c1 [Compound 442]	
		N/I	COc1cc(NS(=O)(=O)c2ccc(Nc3ccco3)cc2)nc(OC)n1 [Compound 444]	
		N/I	COc1cc(NS(=O)(=O)c2ccc(NC(=O)c3ccco3)cc2)nc(OC)n1 [Compound 445]	
		N/I	COc1cc(NS(=O)(=O)c2ccc(C(C)=O)cc2)nc(OC)n1 [Compound 450]	
	N/I	N/I	COc1cc(NS(=O)(=O)c2ccc(NC(=O)C(C)(C)C)cc2)nc(OC)n1 [Compound 452]	
	N/I	N/I	Cc1onc(-c2ccccc2)c1C(=O)Nc1ccc(S(=O)(=O)Nc2ncccn2)cc1 [Compound 453]	
